Experimental data published in paper PMC3775972 (Wound repair and regeneration : official publication of the …, 2013).

Key:
[1] = system: hybridoma mouse cells; details: nM concentrations; cited from earlier work
[2] = system: T-lymphoblastic leukaemia CEM cells; details: read-out: IC50, cytotoxicity; cited from earlier work
[3] = system: TNF-α mRNA; experiment: Real time PCR of wound tissue, TNF-α; assay type: in vivo; details: d 10 post-wounding, 10 μg/mouse topical daily
[4] = system: TGF-β mRNA; experiment: Real time PCR of wound tissue, TGF-β; assay type: in vivo; details: d 10 post-wounding, 10 μg/mouse topical daily
[5] = system: ICAM-1 mRNA; experiment: Real time PCR of wound tissue, ICAM-1; assay type: in vivo; details: d 10 post-wounding, 10 μg/mouse topical daily
[6] = system: RPMI 8226 cancer cells; details: read-out: IC50, cytotoxicity; RPMI 8226 cells; cited from earlier work
[7] = system: A549 cancer cell line; details: cited from earlier work
[8] = system: full thickness dermal wound in C57BL/6J mice; experiment: Mouse model of cutaneous wound healing; assay type: in vivo
[9] = Body weight and food intake after wounding; assay type: in vivo; details: 10 μg/mouse topically daily, d 2 post-wounding
[10] = system: phospho-Akt1(Ser473); experiment: Western blot of edge-of-the-wound tissue, Akt phosphorylation; assay type: in vivo; details: 10 μg/mouse topical daily
[11] = system: HeLa cancer cell line; details: cited from earlier work
[12] = system: HOS cancer cell line; details: cited from earlier work
[13] = system: healthy rats; details: oral administration, associated with activation of Akt; cited from earlier work
[14] = system: macrophage cell culture; experiment: LPS-stimulated inflammation in macrophage cell culture; assay type: cell-based; details: preliminary data, not shown
[15] = system: 3T3 mouse fibroblasts; experiment: Scratch wound closure; assay type: cell-based; details: for Scratch wound closure at 5 μM, %: 12 h incubation, mean ± SEM; for Fibroblast migration / scratch wound closure activity (in words): dose dependence at 0.1–10 μM, 12 h
[16] = system: primary mouse keratinocytes; experiment: Primary keratinocyte proliferation assay; assay type: cell-based; details: for Proliferation of primary keratinocytes: versus vehicle (ethanol); for Proliferation of primary keratinocytes, dose dependence: respective doses, Alamar Blue
[17] = system: K562 cancer cell line; details: cited from earlier work
[18] = system: 3T3 mouse fibroblasts; experiment: Fibroblast proliferation assay; assay type: cell-based; details: 24 h, BrdU, mean ± SEM
[19] = system: 3T3 mouse fibroblasts; experiment: Fibroblast viability / cytotoxicity assay; assay type: cell-based; details: for IC50: read-out: Cell cytotoxicity, IC, MTT, 0.3–30 μM for 4 h
[20] = Fibroblast viability / cytotoxicity assay; assay type: cell-based, mouse; details: mouse, NIH 3T3 fibroblasts (ATCC CCL-92)
[21] = system: human cancer cell lines; details: below 50 μM; cited from earlier work
[22] = system: 3T3 mouse fibroblasts; details: PDGF 2 nM, reference treatment; cited from earlier work

CC(C)[C@@H](C)[C@@H](O)[C@H](O)[C@@H](C)[C@H]1CC[C@H]2[C@@H]3COC(=O)[C@H]4C[C@H](O)[C@H](O)C[C@]4(C)[C@H]3CC[C@]12C [24-epibrassinolide]
Proportions of viable hybridoma mouse cells [1]: increased

CC[C@@H](C(C)C)[C@@H](O)[C@H](O)[C@@H](C)[C@H]1CC[C@H]2[C@@H]3CC(=O)[C@H]4C[C@H](O)[C@H](O)C[C@]4(C)[C@H]3CC[C@]12C [(22R, 23R)-homocastasterone, reference compound]
IC50 [2]: 13 µM

CCNC(=O)[C@H]1O[C@@H](n2cnc3c(N)nc(NCCc4ccc(CCC(=O)O)cc4)nc32)[C@H](O)[C@@H]1O [CGS-21680, reference compound]
TNF-α mRNA level in wound tissue [3]: remarkable suppression | TGF-β mRNA level in wound tissue [4]: no effect | ICAM-1 mRNA level in wound tissue [5]: no effect

CC[C@@H](C(C)C)[C@H](O)[C@@H](O)[C@@H](C)[C@H]1CC[C@H]2[C@@H]3COC(=O)[C@H]4C[C@H](O)[C@H](O)C[C@]4(C)[C@H]3CC[C@]12C [Compound 1, (22S, 23S, 24S)-2α, 3 α, 22,23-tetrahydroxy-24 ethyl-^2-homo-7-oxo-5α-cholestane-6-one]
IC50 [2]: ~30 µM | IC50 [6]: ~30 µM | TNF-α mRNA level in wound tissue [3]: nearly complete downregulation | Cytotoxicity (in words) [7]: no cytotoxicity | Cutaneous wound healing ([8]; 10 μg topical per mouse per day for 10 d, versus vehicle): significantly improved | Increase in speed of wound closure relative to control mice ([8]; d 4, percent of original wound size, 10 μg/mouse topical): 2 fold | TGF-β mRNA level in wound tissue [4]: weak effect | Body weight loss associated with injury [9]: tendency for HB to reduce weight loss | Akt-1 phosphorylation in edge-of-the-wound tissue [10]: upregulation | Cytotoxicity (in words) [11]: no cytotoxicity | Cytotoxicity (in words) [12]: no cytotoxicity | Anabolic response [13]: selective anabolic response | ICAM-1 mRNA level in wound tissue [5]: significant suppression | Effect on LPS-stimulated inflammation [14]: no pro- or anti-inflammatory effect | Scratch wound closure at 5 μM, % [15]: 30 ± 4.2 % | Scratch wound closure at 5 μM, % ([15]; listed as HB): 30 ± 4.2% | Proliferation of primary keratinocytes ([16]; 3 μM): did not reach significance | Proliferation of primary keratinocytes ([16]; doses of 0.3 and 10 μM): significant increase | Cytotoxicity (in words) [17]: no cytotoxicity | Cell proliferation at 5 μM, % of control [18]: 37.7 ± 3.4 % of control | Cytotoxicity (in words) ([19]; at or up to 30 μM, the highest concentration tested): no cytotoxicity | IC50 [19]: > 30 µM

CC[C@@H](C(C)C)[C@H](O)[C@@H](O)[C@@H](C)[C@H]1CC[C@H]2[C@@H]3CC(=O)[C@H]4C[C@H](O)[C@H](O)C[C@]4(C)[C@H]3CC[C@]12C [Compound 2, (22S, 23S, 24S)-2α, 3α, 22, 23-tetrahydroxy-24-ethyl-5α-cholestan-6-one]
Scratch wound closure at 5 μM, % [15]: 32.9 ± 4.1 % | IC50 at 4 h [20]: > 30 µM | Cytotoxicity (in words) [21]: weak to no cytotoxicity

CC[C@H](C(C)C)[C@H](O)[C@@H](O)[C@@H](C)[C@H]1CC[C@H]2[C@@H]3COC(=O)[C@H]4C[C@H](F)CC[C@]4(C)[C@H]3CC[C@]12C [Compound 3, (22S,23S,24R)-3α-fluoro-22,23-dihydroxy-24-ethyl-^2-homo-7-oxa-5 α-cholestan-6-one]
Scratch wound closure at 5 μM, % [15]: 15.3 ± 2.6% | IC50 [19]: ~30 µM

CC[C@@H](C(C)C)[C@H](O)[C@@H](O)[C@@H](C)[C@H]1CC[C@H]2[C@@H]3CC(=O)[C@H]4C[C@H](F)CC[C@]4(C)[C@H]3CC[C@]12C [Compound 4, (22S,23S,24S)-3α-fluoro-22,23-dihydroxy-24-ethyl-5 α-cholestan-6-one]
Scratch wound closure at 5 μM, % [15]: 27.7 ± 4.0 % | Fibroblast migration / scratch wound closure activity (in words) [15]: high activity similar to HB | Proliferation of primary keratinocytes, dose dependence [16]: dose-dependently decreased | IC50 at 4 h [20]: ~30 µM

CC[C@@H](C(C)C)[C@H](O)[C@@H](O)[C@@H](C)[C@H]1CC[C@H]2[C@@H]3CNC(=O)[C@H]4C[C@H](O)[C@H](O)C[C@]4(C)[C@H]3CC[C@]12C [Compound 5, (22S,23S,24S)-2α,3α,22,23-tetrahydroxy-24-ethyl-^2-homo-7-aza-5α-cholestan-6-one]
Scratch wound closure at 5 μM, % [15]: 13.0 ± 0.7% | Fibroblast migration / scratch wound closure activity (in words) [15]: no effect | IC50 [19]: 12.5 µM

CC[C@@H](C(C)C)[C@H](O)[C@@H](O)[C@@H](C)[C@H]1CC[C@H]2[C@@H]3CC(=O)N[C@H]4C[C@H](O)[C@H](O)C[C@]4(C)[C@H]3CC[C@]12C [Compound 6, (22S,23S,24S)-2α,3α,22,23-tetrahydroxy-24-ethyl-^2-homo-6-aza-5α-cholestan-7-one]
Scratch wound closure at 5 μM, % [15]: 30.5 ± 4.2 % | Fibroblast migration / scratch wound closure activity (in words) [15]: highest activity at 3 μM | Proliferation of primary keratinocytes, dose dependence [16]: dose-dependently decreased | IC50 [19]: > 30 µM

CC(C)[C@H](C)[C@H](O)[C@@H](O)[C@@H](C)[C@H]1CC[C@H]2[C@@H]3COC(=O)[C@H]4C[C@@H](O)[C@H](O)C[C@]4(C)[C@H]3CC[C@]12C [Compound 8, (22S,23S,24R)-2α,3α,22,23-tetrahydroxy-24-methyl-^2-homo-7-oxa-5α-cholestan-6-one]
Scratch wound closure at 5 μM, % [15]: 13.2 ± 1.5% | Cell proliferation at 5 μM, % of control [18]: 31.9 ± 5.3 % of control | IC50 [19]: > 30 µM

CC(C)[C@@H](C)[C@@H](O)[C@H](O)[C@@H](C)[C@H]1CC[C@H]2[C@@H]3COC(=O)[C@H]4C[C@H](O)[C@H](O)C[C@]4(C)[C@H]3CC[C@]12C [Compound 9, (22R,23R,24R)-2α,3α,22,23-tetrahydroxy-24-methyl-^2-homo-7-oxa-5α-cholestan-6-one]
Scratch wound closure at 5 μM, % [15]: 8.1 ± 1.6% | Cell proliferation at 5 μM, % of control [18]: 31.0 ± 2.6 % of control | IC50 [19]: > 30 µM

PDGF
Scratch wound closure, % [22]: 64.8 ± 1.7 %
